{"source": "patent US20140088144A1", "about": "“INHIBITING MICROBIAL INFECTIONS” (THE UNIVERSITY OF KANSAS, priority 2012, published 2014)", "key": {"[1]": {"system": "icsB", "test": "Shigella gene expression qRT-PCR, icsB", "format": "cell-based, S. flexneri", "conditions": "for Average ΔΔCt / Ct / RQ (2^−ΔΔCt) / ΔΔCt^1 (normalized to gapA) / ΔΔCt^2 (normalized to rrsA): icsB, example data", "experimental": "(§1) Real-time quantitative reverse transcription PCR (qRT-PCR) was performed to test the effects of SE-1 on the expression of the VirF regulated genes virB, icsA, icsB and ipaB. The gapA and rrsA transcripts were used as internal controls. These are constitutively expressed Shigella genes commonly used to normalize mRNA levels. S. flexneri strain SME4331, which carries a null mutation in ipgD (ipgD), was grown at 30° C. overnight in TSB with ampicillin, diluted into the same medium to an OD600 of ˜0.1, and 1 ml aliquots further grown at 30° C. (DMSO only) or at 37° C. (SE-1 at 20 or 40 μM, or DMSO only, all 0.3% DMSO). Cells were grown to an OD600 of 1.0 (˜2.5 h) and RNA was isolated using an RNeasy MiniElute Cleanup Kit (Qiagen, Germantown, Md.), with DNA contamination eliminated using a Turbo DNase Kit (Ambion, Austin, Tex.). Complementary DNA (cDNA) was synthesized by random priming using a cDNA Reverse Transcription Kit (Applied Biosystems, Foster City, Calif.). Primers were tested for PCR specificity using genomic DNA template to ensure a single amplicon of the expected size for each primer pair, and validated using 5-fold dilutions of cDNA (2000 to 0.0256 ng) to ensure a linear plot of cycle threshold (Ct) versus cDNA concentration. Validated primer sets were used to test mRNA profiles in reactions that contained 10 ng of cDNA, 10 μl of SYBR green master mix (Applied Biosystems), specific primers (0.5 μM each) and water to a final volume of 20 μl, using a Step One Plus Real-Time PCR System (Applied Biosystems). The data was analyzed using the 2^−ΔΔCt method, and also by Applied Biosystems real-time analysis software. […] In brief, ΔΔCt values [ΔΔCt=(Ct,Target−Ct,Internal Control)SE-1−(Ct,Target−Ct,Internal Control)no SE-1] were separately obtained for each sample relative to two internal controls, gapA and rrsA. The ΔΔCt values relative to the two internal controls for each sample were averaged and then used to calculate the relative expression levels (2^−ΔΔCt). As a control, we also normalized each internal control to the other internal control. Control reactions used templates generated without reverse transcriptase to ensure low genomic DNA contamination. To ensure that products were not likely to be due to primer dimer artifacts, additional control samples were performed in which reaction mixtures contained primers alone (no template)."}, "[2]": {"system": "virB", "test": "Shigella gene expression qRT-PCR, virB", "format": "cell-based, S. flexneri", "conditions": "for Average ΔΔCt / Ct / RQ (2^−ΔΔCt) / ΔΔCt^1 (normalized to gapA) / ΔΔCt^2 (normalized to rrsA): virB, example data", "experimental": "as §1"}, "[3]": {"system": "MBP-NS1-NTD", "test": "Fluorescence-based thermal shift assay (Sypro Orange), control protein", "format": "binding", "conditions": "0 or 80 μM SE-1, 1 μM protein", "experimental": "Binding of SE-1 to purified VirF was tested by comparing the VirF melting temperature (Tm) in the absence and presence of SE-1 using a thermal shift assay with the fluorescent dye Sypro Orange (Molecular Probes). This method is also known as differential scanning fluorimetry or DSF. As a control, we tested binding of SE-1 to the purified, unrelated, MBP-NS1-NTD protein (greater than 95% pure). Reactions contained (final concentrations): 1 μM protein; 20×Sypro Orange (a 250-fold dilution of the purchased 5,000× stock solution); 0.76×EMSA buffer (7.6 mM Tris-acetate, pH 7.4, 0.76 mM KEDTA, 38 mM KCl, and 0.76 mM DTT); 4% DMSO; and 0 or 80 μM SE-1. The reactions were carried out in 0.1 ml PCR low profile 8-tube strips with optically clear flat caps (USA Scientific) in a StepOnePlus™ Real-Time PCR System (Applied Biosystems), heating from 25 to 99° C. in increments of 0.8° C. The data was analyzed using the Boltzmann sigmoidal model in the software Prism (GraphPad). Data points before and after the fluorescence intensity minimum and maximum, respectively, were excluded from fitting. The ΔTm values are the average of three independent experiments with two replicates in each experiment. A single, representative, experiment is shown."}}}
{"compound": "CCCCN1C=C(c2ccc3ccccc3n2)C(C[N+](=O)[O-])c2ccccc21", "note": "(centres unmarked) [Compound 1, 1-butyl-4-(nitromethyl)-3-quinolin-2-yl-4H-quinoline]", "values": [{"measurement": "reduction of icsB expression", "setting": "[1]; 40 μM SE-1, P<0.05", "result": "two-fold reduction"}, {"measurement": "Average ΔΔCt", "setting": "[1]; SE-1 20 μM", "result": "−0.06"}, {"measurement": "Ct", "setting": "[1]; SE-1 20 μM", "result": 26.25}, {"measurement": "RQ (2^−ΔΔCt)", "setting": "[1]; SE-1 20 μM", "result": 1.04}, {"measurement": "ΔΔCt^1 (normalized to gapA)", "setting": "[1]; SE-1 20 μM", "result": "−0.56"}, {"measurement": "ΔΔCt^2 (normalized to rrsA)", "setting": "[1]; SE-1 20 μM", "result": 0.44}, {"measurement": "Average ΔΔCt", "setting": "[1]; SE-1 40 μM", "result": 1.14}, {"measurement": "Ct", "setting": "[1]; SE-1 40 μM", "result": 27.04}, {"measurement": "RQ (2^−ΔΔCt)", "setting": "[1]; SE-1 40 μM", "result": 0.45}, {"measurement": "ΔΔCt^1 (normalized to gapA)", "setting": "[1]; SE-1 40 μM", "result": 0.80}, {"measurement": "ΔΔCt^2 (normalized to rrsA)", "setting": "[1]; SE-1 40 μM", "result": 1.49}, {"measurement": "maximal inhibition of virB expression", "setting": "[2]; 40 μM SE-1, P<0.05", "result": "more than two fold"}, {"measurement": "Average ΔΔCt", "setting": "[2]; SE-1 20 μM", "result": 1.13}, {"measurement": "Ct", "setting": "[2]; SE-1 20 μM", "result": 23.26}, {"measurement": "RQ (2^−ΔΔCt)", "setting": "[2]; SE-1 20 μM", "result": 0.46}, {"measurement": "ΔΔCt^1 (normalized to gapA)", "setting": "[2]; SE-1 20 μM", "result": 0.63}, {"measurement": "ΔΔCt^2 (normalized to rrsA)", "setting": "[2]; SE-1 20 μM", "result": 1.63}, {"measurement": "Average ΔΔCt", "setting": "[2]; SE-1 40 μM", "result": 1.47}, {"measurement": "Ct", "setting": "[2]; SE-1 40 μM", "result": 23.18}, {"measurement": "RQ (2^−ΔΔCt)", "setting": "[2]; SE-1 40 μM", "result": 0.36}, {"measurement": "ΔΔCt^1 (normalized to gapA)", "setting": "[2]; SE-1 40 μM", "result": 1.12}, {"measurement": "ΔΔCt^2 (normalized to rrsA)", "setting": "[2]; SE-1 40 μM", "result": 1.81}, {"measurement": "change in melting temperature of MBP-NS1-NTD", "setting": "[3]", "result": 0.15, "unit": "°C"}]}
